For 35 compounds, melting point results are on record in patent US7183415B2, “Quinoline compound” (Takeda Pharmaceutical Company Limited, priority 2001, dated 2007).

Each structure is given as a SMILES string.

Broadly, the melting point is the temperature, or range, at which the solid turns liquid. Consider `O=C(Nc1ccc2cc(CN3CCCC3)cnc2c1)c1ccc(-c2ccccc2)cc1` [Example 2, N-[3-(1-pyrrolidinylmethyl)-7-quinolinyl][1,1′-biphenyl]-4-carboxamide], for which the melting point is 192 to 194 °C.

Turning to `CCN(CC)Cc1cnc2cc(NC(=O)c3ccc(-c4ccc(Cl)cc4)cc3)c(OC)cc2c1` [Example 22, 4′-chloro-N-{3-[(diethylamino)methyl]-6-methoxy-7-quinolinyl}[1,1′-biphenyl]-4-carboxamide], the melting point was 271 °C (dec.).

For `Cc1c(NC(=O)c2ccc(-c3ccc(OC(F)(F)F)cc3)cc2)ccc2cc(CN3CCCC3)cnc12` [Example 103, N-[8-methyl-3-(1-pyrrolidinylmethyl)-7-quinolinyl]-4′-(trifluoromethoxy)[1,1′-biphenyl]-4-carboxamide], the melting point is 200 to 202 °C.

In turn, `Cc1c(NC(=O)c2ccc(-c3ccc(Cl)cc3)cc2)ccc2cc(CN3CCCC3)cnc12` [Example 21, 4′-chloro-N-[8-methyl-3-(1-pyrrolidinylmethyl)-7-quinolinyl][1,1′-biphenyl]-4-carboxamide] registered a melting point of 227 to 229 °C.

The compound `Cc1c(NC(=O)c2ccc(-c3ccc(F)cc3)nc2)ccc2cc(CN3CCCC3)cnc12` [Example 97, 6-(4-fluorophenyl)-N-[8-methyl-3-(1-pyrrolidinylmethyl)-7-quinolinyl]nicotinamide] gave a melting point of 207 to 209 °C.

Compound `CCNC(=O)CCC1CCN(Cc2cnc3cc(NC(=O)c4ccc(-c5ccc(F)cc5)cc4)c(C)cc3c2)CC1` [Example 255, N-[3-({4-[3-(ethylamino)-3-oxopropyl]-1-piperidinyl}methyl)-6-methyl-7-quinolinyl]-4′-fluoro[1,1′-biphenyl]-4-carboxamide] displayed a melting point of 227 to 230 °C.

As to `O=C(Nc1cc2ncc(CN3CCCC3)cc2cc1F)c1ccc(-c2ccccc2)cc1F` [Example 58, 3-fluoro-N-[6-fluoro-3-(1-pyrrolidinylmethyl)-7-quinolinyl][1,1′-biphenyl]-4-carboxamide], the melting point lay in the range of 163 to 164 °C.

The compound `CCN(CC)Cc1cnc2cc(NC(=O)c3ccc(-c4ccc(F)cc4)cc3)c(C)cc2c1` [Example 249, N-{3-[(diethylamino)methyl]-6-methyl-7-quinolinyl)-4′-fluoro[1,1′-biphenyl]-4-carboxamide] yielded a melting point of 145 to 148 °C.

Regarding `Cc1c(NC(=O)c2ccc(-c3ccc(F)cc3)c(F)c2)ccc2cc(CN3CCCCC3)cnc12` (hydrate or solvate) [Example 176, 2,4′-difluoro-N-[8-methyl-3-(1-piperidinylmethyl)-7-quinolinyl][1,1′-biphenyl]-4-carboxamide], the melting point lay within 161 to 162 °C.

Regarding `O=C(Nc1ccc2cc(CN3CCCCCC3)cnc2c1)c1ccc(-c2ccc(F)cc2)cc1` [Example 29, N-[3-(1-azepanylmethyl)-7-quinolinyl]-4′-fluoro[1,1′-biphenyl]-4-carboxamide], the melting point is 202 °C.

On to `Cc1c(NC(=O)c2ccc(-c3ccccc3F)cc2)ccc2cc(CN3CCCC3)cnc12` [Example 99, 2′-fluoro-N-[8-methyl-3-(1-pyrrolidinylmethyl)-7-quinolinyl][1,1′-biphenyl]-4-carboxamide], for which the melting point lay in the range of 133 to 135 °C.

Compound `Cc1cc2cc(CN3CCCCCC3)cnc2cc1NC(=O)c1ccc(-c2ccccc2)cc1F` [Example 246, N-[3-(1-azepanylmethyl)-6-methyl-7-quinolinyl]-3-fluoro[1,1′-biphenyl]-4-carboxamide] returned a melting point of 151 °C.

Compound `O=C(Nc1ccc2cc(CN3CCCC3)cnc2c1)c1ccc(-c2ccc(F)cc2)nc1` [Example 9, 6-(4-fluorophenyl)-N-[3-(1-pyrrolidinylmethyl)-7-quinolinyl]nicotinamide] showed a melting point of 218 to 220 °C.

With `COc1ccc(-c2ccc(C(=O)Nc3ccc4cc(CN5CCCCCC5)cnc4c3C)c(F)c2)cc1` [Example 185, N-[3-(1-azepanylmethyl)-8-methyl-7-quinolinyl]-3-fluoro-4′-methoxy[1,1′-biphenyl]-4-carboxamide], the melting point was 171 to 172 °C.

On to `Cc1c(NC(=O)c2ccc(-c3ccc(F)cc3F)cc2)ccc2cc(CN3CCCC3)cnc12` [Example 100, 2′,4′-difluoro-N-[8-methyl-3-(1-pyrrolidinylmethyl)-7-quinolinyl][1,1′-biphenyl]-4-carboxamide], for which the melting point fell in the range of 177 to 179 °C.

Regarding `Cc1ccc(-c2ccc(C(=O)Nc3ccc4cc(CN5CCCC5)cnc4c3F)cc2)cc1` [Example 74, N-[8-fluoro-3-(1-pyrrolidinylmethyl)-7-quinolinyl]-4′-methyl[1,1′-biphenyl]-4-carboxamide], the melting point lay within 210 to 213 °C.

Regarding `O=C(Nc1ccc2cc(CN3CCCCCC3)cnc2c1)c1ccc(-c2ccccc2)cc1` [Example 31, N-[3-(1-azepanylmethyl)-7-quinolinyl][1,1′-biphenyl]-4-carboxamide], the melting point is 205 °C (dec.).

In the case of `COc1ccc(-c2ccc(C(=O)Nc3ccc4cc(CN5CCCCCC5)cnc4c3)cc2)cc1` [Example 30, N-[3-(1-azepanylmethyl)-7-quinolinyl]-4′-methoxy[1,1′-biphenyl]-4-carboxamide], the melting point was 212 °C (dec.).

`Cc1c(NC(=O)c2ccc(-c3ccc(C(F)(F)F)cc3)cc2F)ccc2cc(CN3CCCC3)cnc12` (hydrate or solvate) [Example 138, 3-fluoro-N-[8-methyl-3-(1-pyrrolidinylmethyl)-7-quinolinyl]-4′-(trifluoromethyl)[1,1′-biphenyl]-4-carboxamide] showed a melting point of 202 to 203 °C.

Compound `Cc1c(NC(=O)c2ccc(-c3ccc(F)cc3)cc2)ccc2cc(CN3CCC(CC(=O)N4CCCCC4)CC3)cnc12` [Example 205, 4′-fluoro-N-[8-methyl-3-({4-[2-oxo-2-(1-piperidinyl)ethyl]-1-piperidinyl}methyl)-7-quinolinyl][1,1′-biphenyl]-4-carboxamide] showed a melting point of 189 to 190 °C.

With `Cc1c(NC(=O)c2ccc(-c3ccc(F)cc3)cc2)ccc2cc(CN3CCC(CC(N)=O)CC3)cnc12` [Example 200, N-(3-{[4-(2-amino-2-oxoethyl)-1-piperidinyl]methyl}-8-methyl-7-quinolinyl)-4′-fluoro[1,1′-biphenyl]-4-carboxamide], the melting point lay in the range of 258 to 260 °C.

The compound `COc1c(NC(=O)c2ccc(-c3ccc(F)cc3)cc2)ccc2cc(CN3CCCC3)cnc12` [Example 81, 4′-fluoro-N-[8-methoxy-3-(1-pyrrolidinylmethyl)-7-quinolinyl][1,1′-biphenyl]-4-carboxamide] gave a melting point of 142 to 144 °C.

The compound `COc1ccc(-c2ccc(C(=O)Nc3ccc4cc(CN5CCCCC5)cnc4c3C)cc2)cc1` [Example 165] came in with a melting point of 190 to 192 °C.

Turning to `Cc1cc2cc(CN3CCCCC3)cnc2cc1NC(=O)c1ccc(-c2ccc(F)cc2)cc1` [Example 250, 4′-fluoro-N-[6-methyl-3-(1-piperidinylmethyl)-7-quinolinyl][1,1′-biphenyl]-4-carboxamide], the melting point is 185 to 188 °C.

The compound `COc1ccc(-c2ccc(C(=O)Nc3ccc4cc(CN5CCCC5)cnc4c3F)cc2)cc1` [Example 72, N-[8-fluoro-3-(1-pyrrolidinylmethyl)-7-quinolinyl]-4′-methoxy[1,1′-biphenyl]-4-carboxamide] registered a melting point of 217 to 220 °C.

`O=C(Nc1ccc2cc(CN3CCCC3)cnc2c1)c1ccc(-c2ccc(Cl)cc2)cc1F` [Example 85, 4′-chloro-3-fluoro-N-[3-(1-pyrrolidinylmethyl)-7-quinolinyl][1,1′-biphenyl]-4-carboxamide]: the melting point was 232 °C.

`Cc1ccc(-c2ccc(C(=O)Nc3ccc4cc(CN5CCCC5)cnc4c3F)c(F)c2)cc1` [Example 278, 3-fluoro-N-[8-fluoro-3-(1-pyrrolidinylmethyl)-7-quinolinyl]-4′-methyl[1,1′-biphenyl]-4-carboxamide] showed a melting point of 173 °C.

Take `O=C(Nc1cc2ncc(CN3CCCC3)cc2cc1F)c1ccc(-c2ccccc2)cc1` [Example 52, N-[6-fluoro-3-(1-pyrrolidinylmethyl)-7-quinolinyl][1,1′-biphenyl]-4-carboxamide]: the melting point was 206 to 208 °C.

Compound `Cc1c(NC(=O)c2ccc(-c3ccc(Cl)s3)cc2)ccc2cc(CN3CCCC3)cnc12` [Example 107, 4-(5-chloro-2-thienyl)-N-[8-methyl-3-(1-pyrrolidinylmethyl)-7-quinolinyl]benzamide] gave a melting point of 210 to 211 °C.

Compound `CCCC(=O)Oc1ccc(C(=O)Nc2ccc3cc(CN4CCCC4)cnc3c2C)cc1` [Example 331, 4-({[8-methyl-3-(1-pyrrolidinylmethyl)-7-quinolinyl]amino}carbonyl)phenyl butyrate] returned a melting point of 156 to 158 °C.

With `O=C(Nc1cc2ncc(CN3CCCC3)cc2cc1F)c1ccc(-c2ccc(Cl)cc2)cc1F` [Example 62, 4′-chloro-3-fluoro-N-[6-fluoro-3-(1-pyrrolidinylmethyl)-7-quinolinyl][1,1′-biphenyl]-4-carboxamide], the melting point was in the range of 217 to 219 °C.

The compound `Cc1c(NC(=O)c2ccc(-c3ccccc3)c(F)c2)ccc2cc(CN3CCCCCC3)cnc12` (hydrate or solvate) [Example 188, N-[3-(1-azepanylmethyl)-8-methyl-7-quinolinyl]-2-fluoro[1,1′-biphenyl]-4-carboxamide] gave a melting point of 129 to 130 °C.

For the compound `Cc1cc2cc(CN3CCCC3)cnc2cc1NC(=O)c1ccc(-c2ccccc2F)cc1` [Example 213, 2′-fluoro-N-[6-methyl-3-(1-pyrrolidinylmethyl)-7-quinolinyl][1,1′-biphenyl]-4-carboxamide], the melting point lay within 148 to 149 °C.

As for `Cc1cccc(-c2ccc(C(=O)Nc3ccc4cc(CN5CCCC5)cnc4c3C)cc2)c1` [Example 109, 3′-methyl-N-[8-methyl-3-(1-pyrrolidinylmethyl)-7-quinolinyl][1,1′-biphenyl]-4-carboxamide], the melting point fell in the range of 151 to 152 °C.

The compound `CCNC(=O)CCCC1CCN(Cc2cnc3cc(NC(=O)c4ccc(-c5ccc(F)cc5)cc4)c(C)cc3c2)CC1` [Example 261, N-[3-({4-[4-(ethylamino)-4-oxobutyl]-1-piperidinyl}methyl)-6-methyl-7-quinolinyl]-4′-fluoro[1,1′-biphenyl]-4-carboxamide] had a melting point of 240 °C.
